From patent US20210070748A1, “INHIBITORS OF BRUTONS TYROSINE KINASE” (Pharmacyclics LLC, priority 2015, published 2021)
Read-outs that look alike come from different tables or passages of the source. Each block holds one molecule with its values, some of them ahead of it.

Key:
Assay type in all cases: biochemical
BTK-WT = molecular target: T1, BTK-WT (Homo sapiens, UniProt Q06187); test: Btk in vitro inhibitory activity (one of Method A TR-FRET, Method B electrophoretic mobility shift, Method C radiometric filter binding); settings: read-out: IC50 BTK-WT
T1 construct: purified from insect cells as a full-length construct containing an N-terminal 6X-His tag; His6 (N); made in house; host or cells: insect cells (baculovirus Sf21 in Method B)

ITK = molecular target: T2, ITK (Homo sapiens, UniProt Q08881); test: Inhibition of a panel of kinases, in vitro HotSpot kinase assay: ITK
T2 sequence (Q08881 1-620): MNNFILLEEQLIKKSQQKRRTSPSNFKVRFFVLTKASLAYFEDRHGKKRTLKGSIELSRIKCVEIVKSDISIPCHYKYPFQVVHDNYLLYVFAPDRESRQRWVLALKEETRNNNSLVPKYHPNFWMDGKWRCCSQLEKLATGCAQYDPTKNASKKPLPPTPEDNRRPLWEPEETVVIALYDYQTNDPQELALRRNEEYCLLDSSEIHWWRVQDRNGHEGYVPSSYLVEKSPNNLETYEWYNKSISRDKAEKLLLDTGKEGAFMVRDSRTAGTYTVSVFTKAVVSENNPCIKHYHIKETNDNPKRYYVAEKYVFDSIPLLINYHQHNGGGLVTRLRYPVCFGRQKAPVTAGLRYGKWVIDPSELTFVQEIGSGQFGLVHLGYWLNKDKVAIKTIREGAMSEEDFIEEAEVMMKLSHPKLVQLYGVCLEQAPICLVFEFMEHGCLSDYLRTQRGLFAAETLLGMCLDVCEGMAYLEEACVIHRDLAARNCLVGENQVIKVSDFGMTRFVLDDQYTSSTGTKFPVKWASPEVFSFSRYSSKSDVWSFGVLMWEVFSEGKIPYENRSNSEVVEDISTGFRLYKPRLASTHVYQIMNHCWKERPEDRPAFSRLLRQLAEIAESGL
Description: (§1) The degree of inhibition of a panel of kinases is determined using the in vitro HotSpot kinase assay (purified enzymes, ^33P-ATP, an appropriate substrate and 1 μM ATP).

TEC = molecular target: T3, TEC (Homo sapiens, UniProt P42680); test: Inhibition of a panel of kinases, in vitro HotSpot kinase assay: TEC
T3 sequence (P42680 1-631): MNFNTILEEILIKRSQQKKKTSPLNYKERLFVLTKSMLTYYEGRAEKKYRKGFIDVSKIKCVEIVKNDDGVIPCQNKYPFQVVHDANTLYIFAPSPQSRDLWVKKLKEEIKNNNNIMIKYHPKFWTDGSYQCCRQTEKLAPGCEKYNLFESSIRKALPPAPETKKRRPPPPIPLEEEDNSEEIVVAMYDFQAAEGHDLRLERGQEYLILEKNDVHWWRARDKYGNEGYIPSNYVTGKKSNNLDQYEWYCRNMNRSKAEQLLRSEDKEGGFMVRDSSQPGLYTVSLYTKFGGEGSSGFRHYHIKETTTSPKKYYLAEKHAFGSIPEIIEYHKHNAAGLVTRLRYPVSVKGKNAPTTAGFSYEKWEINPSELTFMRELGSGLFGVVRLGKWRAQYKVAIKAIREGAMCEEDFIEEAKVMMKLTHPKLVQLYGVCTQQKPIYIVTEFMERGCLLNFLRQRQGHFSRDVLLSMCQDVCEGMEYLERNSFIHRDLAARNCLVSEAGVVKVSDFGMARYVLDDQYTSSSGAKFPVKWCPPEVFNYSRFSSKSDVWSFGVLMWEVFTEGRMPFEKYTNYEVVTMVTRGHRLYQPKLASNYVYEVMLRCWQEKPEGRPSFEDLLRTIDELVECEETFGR
Description: as §1

TXK = molecular target: T4, TXK (Homo sapiens, UniProt P42681); test: Inhibition of a panel of kinases, in vitro HotSpot kinase assay: TXK; settings: Table 15, C compounds; 1 μM ATP
T4 sequence (P42681 1-527): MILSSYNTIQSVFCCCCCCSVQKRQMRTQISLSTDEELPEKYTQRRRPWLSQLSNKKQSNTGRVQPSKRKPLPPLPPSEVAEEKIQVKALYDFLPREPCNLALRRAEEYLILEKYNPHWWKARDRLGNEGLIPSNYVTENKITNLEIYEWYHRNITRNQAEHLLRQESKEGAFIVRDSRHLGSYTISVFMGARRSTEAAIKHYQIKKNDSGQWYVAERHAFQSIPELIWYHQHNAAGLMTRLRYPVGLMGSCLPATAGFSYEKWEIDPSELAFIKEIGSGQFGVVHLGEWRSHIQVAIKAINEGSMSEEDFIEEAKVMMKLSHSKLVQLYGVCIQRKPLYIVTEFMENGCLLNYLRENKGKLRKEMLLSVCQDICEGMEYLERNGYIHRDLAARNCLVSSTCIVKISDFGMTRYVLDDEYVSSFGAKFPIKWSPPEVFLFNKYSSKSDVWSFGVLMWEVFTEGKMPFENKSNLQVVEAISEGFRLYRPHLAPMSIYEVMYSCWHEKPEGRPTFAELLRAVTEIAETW
Description: as §1

LCK = LCK (Homo sapiens, UniProt P06239); test: Inhibition of a panel of kinases, in vitro HotSpot kinase assay: LCK; settings: read-out: IC50 LCK
EGFR = EGFR (Homo sapiens, UniProt P00533); test: Inhibition of a panel of kinases, in vitro HotSpot kinase assay: EGFR
Description: as §1

SRC = SRC (Homo sapiens, UniProt P12931); test: Inhibition of a panel of kinases, in vitro HotSpot kinase assay: SRC; settings: D-compounds panel data; 1 μM ATP
Description: as §1

[1] = Table 15, C compounds, 1 μM ATP
[2] = D-compounds panel data, 1 μM ATP

Sequence of EGFR (P00533 25-1210): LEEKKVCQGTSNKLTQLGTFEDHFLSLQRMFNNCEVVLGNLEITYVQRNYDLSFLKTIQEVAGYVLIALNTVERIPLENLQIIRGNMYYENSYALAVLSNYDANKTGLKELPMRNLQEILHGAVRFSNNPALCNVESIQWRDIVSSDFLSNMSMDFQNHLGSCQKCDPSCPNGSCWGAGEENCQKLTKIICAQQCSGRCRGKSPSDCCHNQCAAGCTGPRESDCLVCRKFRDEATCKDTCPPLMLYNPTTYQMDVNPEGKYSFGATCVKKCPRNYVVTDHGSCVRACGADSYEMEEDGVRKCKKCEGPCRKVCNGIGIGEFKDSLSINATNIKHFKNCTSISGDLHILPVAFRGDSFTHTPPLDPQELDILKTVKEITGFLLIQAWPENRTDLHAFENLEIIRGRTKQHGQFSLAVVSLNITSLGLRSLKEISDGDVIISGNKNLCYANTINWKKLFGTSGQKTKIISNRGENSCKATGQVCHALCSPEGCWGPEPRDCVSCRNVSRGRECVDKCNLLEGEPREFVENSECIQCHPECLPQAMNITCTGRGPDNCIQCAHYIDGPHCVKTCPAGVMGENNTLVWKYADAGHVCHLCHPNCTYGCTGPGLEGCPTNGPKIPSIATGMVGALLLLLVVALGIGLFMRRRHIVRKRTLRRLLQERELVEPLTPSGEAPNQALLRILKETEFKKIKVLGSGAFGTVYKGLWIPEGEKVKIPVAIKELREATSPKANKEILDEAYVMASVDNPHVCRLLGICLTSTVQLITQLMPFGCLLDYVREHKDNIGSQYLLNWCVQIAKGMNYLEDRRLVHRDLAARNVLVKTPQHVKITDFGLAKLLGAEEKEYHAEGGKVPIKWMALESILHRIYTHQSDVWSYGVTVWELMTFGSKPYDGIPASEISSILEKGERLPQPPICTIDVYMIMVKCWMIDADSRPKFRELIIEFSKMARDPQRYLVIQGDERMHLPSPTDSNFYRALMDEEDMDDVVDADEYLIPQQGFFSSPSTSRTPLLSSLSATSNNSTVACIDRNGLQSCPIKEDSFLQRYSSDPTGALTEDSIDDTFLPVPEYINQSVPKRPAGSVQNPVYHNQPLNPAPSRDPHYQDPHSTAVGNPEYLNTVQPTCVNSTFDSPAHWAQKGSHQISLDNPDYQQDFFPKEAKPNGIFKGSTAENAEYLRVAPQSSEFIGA
Sequence of LCK (P06239 whole entry): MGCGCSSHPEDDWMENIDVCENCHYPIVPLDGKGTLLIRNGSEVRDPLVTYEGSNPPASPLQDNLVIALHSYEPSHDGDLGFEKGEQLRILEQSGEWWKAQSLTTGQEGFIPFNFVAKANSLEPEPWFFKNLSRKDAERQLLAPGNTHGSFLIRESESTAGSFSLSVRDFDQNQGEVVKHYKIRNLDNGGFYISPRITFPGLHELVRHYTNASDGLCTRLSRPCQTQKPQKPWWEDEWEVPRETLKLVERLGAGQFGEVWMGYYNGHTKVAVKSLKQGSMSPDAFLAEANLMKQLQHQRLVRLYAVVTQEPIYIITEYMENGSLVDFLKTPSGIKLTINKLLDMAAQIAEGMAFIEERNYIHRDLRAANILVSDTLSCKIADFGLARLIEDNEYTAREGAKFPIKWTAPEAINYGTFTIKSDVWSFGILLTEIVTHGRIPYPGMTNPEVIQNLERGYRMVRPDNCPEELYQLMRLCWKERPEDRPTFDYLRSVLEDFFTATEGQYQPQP
T1 sequence (Q06187 whole entry): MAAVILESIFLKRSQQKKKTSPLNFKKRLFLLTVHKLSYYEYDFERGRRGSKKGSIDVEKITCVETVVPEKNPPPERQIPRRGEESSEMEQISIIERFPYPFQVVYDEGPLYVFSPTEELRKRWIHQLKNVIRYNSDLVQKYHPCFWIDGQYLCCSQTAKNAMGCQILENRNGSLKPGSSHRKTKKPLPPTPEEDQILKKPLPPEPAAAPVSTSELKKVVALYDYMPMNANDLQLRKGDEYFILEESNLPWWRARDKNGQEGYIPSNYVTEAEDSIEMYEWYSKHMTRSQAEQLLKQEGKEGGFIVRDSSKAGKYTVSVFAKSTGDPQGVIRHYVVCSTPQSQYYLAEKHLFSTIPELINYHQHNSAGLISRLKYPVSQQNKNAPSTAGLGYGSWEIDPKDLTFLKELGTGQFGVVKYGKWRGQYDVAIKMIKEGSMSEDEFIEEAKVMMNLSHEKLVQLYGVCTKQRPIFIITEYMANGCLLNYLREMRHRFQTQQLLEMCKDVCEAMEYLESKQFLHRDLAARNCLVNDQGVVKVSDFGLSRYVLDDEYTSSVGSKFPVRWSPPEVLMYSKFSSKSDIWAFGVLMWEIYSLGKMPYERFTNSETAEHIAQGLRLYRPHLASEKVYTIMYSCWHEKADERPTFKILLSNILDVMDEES
Sequence of SRC (P12931 whole entry): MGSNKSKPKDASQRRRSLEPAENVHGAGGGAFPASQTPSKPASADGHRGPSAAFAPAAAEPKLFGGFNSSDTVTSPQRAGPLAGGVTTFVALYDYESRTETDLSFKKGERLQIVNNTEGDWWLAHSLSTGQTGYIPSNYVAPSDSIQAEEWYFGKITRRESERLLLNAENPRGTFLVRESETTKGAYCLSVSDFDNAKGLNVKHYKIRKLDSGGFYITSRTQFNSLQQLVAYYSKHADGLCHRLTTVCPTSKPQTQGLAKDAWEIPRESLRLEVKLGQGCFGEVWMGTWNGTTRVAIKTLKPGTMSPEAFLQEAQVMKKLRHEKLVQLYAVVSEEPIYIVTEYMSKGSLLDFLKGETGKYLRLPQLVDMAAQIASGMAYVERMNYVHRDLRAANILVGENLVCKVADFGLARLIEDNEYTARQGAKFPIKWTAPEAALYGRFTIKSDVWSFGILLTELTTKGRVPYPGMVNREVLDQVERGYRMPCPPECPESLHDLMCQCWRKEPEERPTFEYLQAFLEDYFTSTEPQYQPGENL

IC50 (BTK-WT; E compounds, Table 17): ≤ 10 nM | IC50 (LCK; E compounds, Table 17): 100 to 1000 nM | IC50 (ITK; E compounds, Table 17): 10 to 100 nM | IC50 (EGFR; E compounds, Table 17): 10 to 100 nM | IC50 (TEC; E compounds, Table 17): ≤ 10 nM
SMILES: C=CC(=O)N1CCC[C@@H](Nc2nnc(C(N)=O)c(Nc3ccc(-n4nccn4)cc3)n2)C1 [Example E-67, (R)-5-(4-(2H-1,2,3-triazol-2-yl)phenylamino)-3-(1-acryloylpiperidin-3-ylamino)-1,2,4-triazine-6-carboxamide]

IC50 (BTK-WT; E compounds, Table 17): ≤ 10 nM | IC50 (LCK; E compounds, Table 17): 10 to 100 nM | IC50 (ITK; E compounds, Table 17): ≤ 10 nM | IC50 (EGFR; E compounds, Table 17): ≤ 10 nM | IC50 (TEC; E compounds, Table 17): ≤ 10 nM
SMILES: C=CC(=O)N1CCC[C@@H](Nc2cnc(C(N)=O)c(Nc3ccc(C4CCN(C5CCCC5)CC4)cc3)n2)[C@H]1C [Example E-99, 5-((2R,3R)-1-acryloyl-2-methylpiperidin-3-ylamino)-3-(4-(1-cyclopentylpiperidin-4-yl)phenylamino)pyrazine-2-carboxamide]

IC50 (BTK-WT; E compounds, Table 17): ≤ 10 nM | IC50 (LCK; E compounds, Table 17): 100 to 1000 nM | IC50 (ITK; E compounds, Table 17): 10 to 100 nM | IC50 (EGFR; E compounds, Table 17): 10 to 100 nM | IC50 (TEC; E compounds, Table 17): ≤ 10 nM
SMILES: C=CC(=O)N1CCC[C@@H](Nc2nnc(C(N)=O)c(Nc3cccc(-n4nccn4)c3)n2)C1 [Example E-61, (R)-5-(3-(2H-1,2,3-triazol-2-yl)phenylamino)-3-(1-acryloylpiperidin-3-ylamino)-1,2,4-triazine-6-carboxamide]

IC50 (BTK-WT; E compounds, Table 17): ≤ 10 nM | IC50 (LCK; E compounds, Table 17): 100 to 1000 nM | IC50 (ITK; E compounds, Table 17): ≤ 10 nM | IC50 (EGFR; E compounds, Table 17): ≤ 10 nM | IC50 (TEC; E compounds, Table 17): ≤ 10 nM
SMILES: C=CC(=O)N1CCC[C@@H](Nc2nnc(C(N)=O)c(Nc3ccc4ncccc4c3)n2)C1 [Example E-68, (R)-3-(1-acryloylpiperidin-3-ylamino)-5-(quinolin-6-ylamino)-1,2,4-triazine-6-carboxamide]

IC50 (BTK-WT; E compounds, Table 17): ≤ 10 nM | IC50 (ITK; E compounds, Table 17): 10 to 100 nM | IC50 (EGFR; E compounds, Table 17): 10 to 100 nM | IC50 (TEC; E compounds, Table 17): ≤ 10 nM
SMILES: C=CC(=O)N1CCC[C@@H](Nc2nnc(C(N)=O)c(Nc3cccc(-c4ncccn4)c3)n2)C1 [Example E-55, (R)-3-(1-acryloylpiperidin-3-ylamino)-5-(3-(pyrimidin-2-yl)phenylamino)-1,2,4-triazine-6-carboxamide]

IC50 (BTK-WT; E compounds, Table 17): ≤ 10 nM | IC50 (ITK; E compounds, Table 17): ≤ 10 nM | IC50 (EGFR; E compounds, Table 17): 10 to 100 nM | IC50 (TEC; E compounds, Table 17): ≤ 10 nM
SMILES: C=CC(=O)N1CCC[C@@H](N(C)c2cnc(C(N)=O)c(Nc3cc(C)ns3)n2)C1 [Example E-124, (R)-5-((1-acryloylpiperidin-3-yl)(methyl)amino)-3-(3-methylisothiazol-5-ylamino)pyrazine-2-carboxamide]

The remaining lines, values behind:

SMILES: C=CC(=O)N1CC[C@@H](N(C)c2cnc(C(N)=O)c(Nc3ccc(C4(C)CCN(C5CCCC5)CC4)cc3)n2)C1 [Example C-67, (R)-5-((1-acryloylpyrrolidin-3-yl)(methyl)amino)-3-(4-(1-cyclopentyl-4-methylpiperidin-4-yl)phenylamino)pyrazine-2-carboxamide]
IC50 (BTK-WT; Table 15, C compounds): ≤ 10 nM | IC50 (ITK; [1]): ≤ 10 nM | IC50 (TEC; [1]): ≤ 10 nM | IC50 (TXK): > 10000 nM

SMILES: C=CC(=O)N1CC[C@@H](N(C)c2cnc(C(N)=O)c(Nc3ccc(C4(C)CCN(C5CC5)CC4)cc3)n2)C1 [Example C-65, (R)-5-((1-acryloylpyrrolidin-3-yl)(methyl)amino)-3-(4-(1-cyclopropyl-4-methylpiperidin-4-yl)phenylamino) pyrazine-2-carboxamide]
IC50 (BTK-WT; Table 15, C compounds): ≤ 10 nM | IC50 (ITK; [1]): ≤ 10 nM | IC50 (TEC; [1]): ≤ 10 nM | IC50 (TXK): ≤ 10 nM

SMILES: C=CC(=O)N1CCC[C@@H](Nc2nnc(C(N)=O)c(Nc3ccc(I)cc3)n2)C1 [Example C-62, (R)-3-(1-acryloylpiperidin-3-ylamino)-5-(4-iodophenylamino)-1,2,4-triazine-6-carboxamide]
IC50 (BTK-WT; Table 15, C compounds): ≤ 10 nM | IC50 (ITK; [1]): 10 to 100 nM | IC50 (TEC; [1]): ≤ 10 nM | IC50 (TXK): ≤ 10 nM

SMILES: C=CC(=O)N1CCC[C@@H](Nc2nnc(C(N)=O)c(Nc3ccc(-n4nccn4)cc3)n2)C1 [Example C-81, (R)-5-(4-(2H-1,2,3-triazol-2-yl)phenylamino)-3-(1-acryloylpiperidin-3-ylamino)-1,2,4-triazine-6-carboxamide]
IC50 (BTK-WT; Table 15, C compounds): ≤ 10 nM | IC50 (ITK; [1]): 10 to 100 nM | IC50 (TEC; [1]): ≤ 10 nM | IC50 (TXK): ≤ 10 nM

SMILES: C[C@@H]1[C@H](NC(=O)c2ccc(C3CC3)cc2)CCCN1c1cnc(C(N)=O)c(Nc2ccc(N3CCCCC3)cc2)n1 [Example D-37, 5-[(2R,3R)-3-(4-cyclopropylbenzamido)-2-methylpiperidin-1-yl]-3-{[4-(piperidin-1-yl)phenyl]amino}pyrazine-2-carboxamide]
IC50 (BTK-WT; D-compounds panel data): 10 to 100 nM | IC50 (LCK; [2]): 100 to 1000 nM | IC50 (ITK; [2]): 1000 to 10000 nM | IC50 (EGFR; [2]): 100 to 1000 nM | IC50 (SRC): 1000 to 10000 nM | IC50 (TEC; [2]): 10 to 100 nM

SMILES: C=CC(=O)N1CCC[C@@H](Nc2nnc(C(N)=O)c(Nc3ccc(-c4ncccn4)cc3)n2)C1 [Example C-52, (R)-3-(1-acryloylpiperidin-3-ylamino)-5-(4-(pyrimidin-2-yl)phenylamino)-1,2,4-triazine-6-carboxamide]
IC50 (BTK-WT; Table 15, C compounds): ≤ 10 nM | IC50 (ITK; [1]): 10 to 100 nM | IC50 (TEC; [1]): ≤ 10 nM | IC50 (TXK): ≤ 10 nM

SMILES: C=CC(=O)N1CCC[C@@H](Nc2nnc(C(N)=O)c(Nc3ccc(C)cc3)n2)C1 [Example C-54, (R)-3-(1-acryloylpiperidin-3-ylamino)-5-(p-tolylamino)-1,2,4-triazine-6-carboxamide]
IC50 (BTK-WT; Table 15, C compounds): ≤ 10 nM | IC50 (ITK; [1]): 10 to 100 nM | IC50 (TEC; [1]): ≤ 10 nM | IC50 (TXK): ≤ 10 nM

SMILES: C=CC(=O)N1CCC[C@@H](Nc2nnc(C(N)=O)c(Nc3ccc(-n4cncn4)cc3)n2)C1 [Example C-83, (R)-5-(4-(1H-1,2,4-triazol-1-yl)phenylamino)-3-(1-acryloylpiperidin-3-ylamino)-1,2,4-triazine-6-carboxamide]
IC50 (BTK-WT; Table 15, C compounds): ≤ 10 nM | IC50 (ITK; [1]): 10 to 100 nM | IC50 (TEC; [1]): ≤ 10 nM | IC50 (TXK): ≤ 10 nM

SMILES: C=CC(=O)N1CCC[C@@H](Nc2nnc(C(N)=O)c(Nc3ccc4c(cnn4CC)c3)n2)C1 [Example C-80, (R)-3-(1-acryloylpiperidin-3-ylamino)-5-(1-ethyl-1H-indazol-5-ylamino)-1,2,4-triazine-6-carboxamide]
IC50 (BTK-WT; Table 15, C compounds): ≤ 10 nM | IC50 (ITK; [1]): ≤ 10 nM | IC50 (TEC; [1]): ≤ 10 nM | IC50 (TXK): ≤ 10 nM

SMILES: C=CC(=O)N1CCC[C@@H](Nc2cnc(C(N)=O)c(Nc3ccc(C4(C)CCN(C5CCCC5)CC4)cc3)n2)[C@H]1C [Example E-100, 5-((2R,3R)-1-acryloyl-2-methylpiperidin-3-ylamino)-3-(4-(1-cyclopentyl-4-methylpiperidin-4-yl)phenylamino)pyrazine-2-carboxamide]
IC50 (BTK-WT; E compounds, Table 17): ≤ 10 nM | IC50 (LCK; E compounds, Table 17): 10 to 100 nM | IC50 (ITK; E compounds, Table 17): ≤ 10 nM | IC50 (EGFR; E compounds, Table 17): ≤ 10 nM | IC50 (TEC; E compounds, Table 17): ≤ 10 nM
